Results from US11679098B2, “Methods for treating diseases” (UNIVERSITY OF LOUISVILLE RESEARCH FOUNDATION, INC., priority 2018, dated 2023).

Legend:
[1] = test system: MGST1 knockout A549 cells; test: Relative proliferation of MGST1 knockout A549 cells (CRISPR/Cas9); assay type: cell-based, human; settings: two different gRNA sequences, 72 h
Procedure: FIG. 3: To assess the role of MGST1 in XB05 activity, we engineered MGST1 knockout cells using CRISPR/Cas9 technology. Western blot analysis indicating the knockout of MGST1 in A549 cells.
(§1) FIG. 4: To assess the role of MGST1 in XB05 activity, we engineered MGST1 knockout cells using CRISPR/Cas9 technology. Effect of XB05 treatment (72 h) on the relative proliferation of two independent clones of A549 cancer cells that express MGST1 (non-transfected, non-targeting gRNA) or where MGST1 was knocked out (gRNA #2, gRNA 3).
Cell proliferation & viability assays. Anti-proliferative activity of XB05 and other compounds was evaluated using a previously published 3-(4,5-dimethylthiazol-2-yl)-2,5-diphenyltetrazolium bromide (MTT) assay protocol (MORGAN “Tetrazolium (MTT) assay for cellular viability and activity” Methods Mol Biol. (1998) Vol. 79, pp. 179-83, which is herein incorporated by reference in its entirety, BATES et al. “Antiproliferative activity of G-rich oligonucleotides correlates with protein binding” J Biol Chem. (1999) Vol. 274, No. 37, pp. 26369-26377, which is herein incorporated by reference in its entirety, SALIPUR et al. “A novel small molecule that induces oxidative stress and selectively kills malignant cells” Free Radic Biol Med. (2014) Vol. 68, pp. 110-121, which is herein incorporated by reference in its entirety). […]

[2] = test system: NCI60 human tumor cell line panel; test: NCI60 human tumor cell line screen; assay type: cell-based
Description: FIG. 1: Screens to Identify the role of Microsomal glutathione S-transferase 1 (MGST1). Results from the NCI's 60 human tumor cell lines screen. The COMPARE algorithm was used to probe microarray results from the cell lines to identify gene expression that correlated with this unusual pattern of growth inhibition.
NCI60 human tumor cell line screen of XB05 activity. To further investigate the initial observations of XB05's anti-cancer activities, XB05 was submitted to the National Cancer Institute's Developmental Therapeutics Program for testing with the NCI60 human tumor cell line panel. This panel consists of 60 well-characterized human tumor cell lines (SHOEMAKER “The NCI60 human tumour cell line anticancer drug screen” Nat Rev Cancer (2006) Vol. 6, No. 10, Vol. 813-823, which is herein incorporated by reference in its entirety).

[3] = test system: IMR-90 (non-malignant lung fibroblasts); test: MTT antiproliferative assay in IMR-90 cells; assay type: cell-based; settings: Homo sapiens, 72 hrs treatment, read-out: MTT Antiproliferative Activity - IC50 (μM) IMR0 (non-malignant lung fibroblasts)
Procedure: (§2) Cell culture. A549 and IMR-90 cells were purchased from the American Type Culture Collection (ATCC), while HOP-62 and HOP-92 were obtained from the cell line repository at the National Cancer Institute. Cells were grown in the appropriate medium supplemented with 10% fetal bovine serum (FBS, Life Technologies, Grand Island, N.Y.), 62.5 μg/mL penicillin and 100 μg/mL streptomycin (Life Technologies) in a humidified incubator at 37° C. with 5% CO2. The media were as follows: Dulbecco's modified Eagle's medium (DMEM, Life Technologies) for A549 cells; RPMI 1640 (Life Technologies) for HOP-62 and HOP-92 cells; Eagle's minimal essential medium (EMEM) with Eagle's balanced salt solution (EBSS), 2 mM L-glutamine, 1500 mg/L sodium bicarbonate (Lonza, Walkersville, Md.), supplemented with 1 mM sodium pyruvate (Life Technologies) and non-essential amino acids (Life Technologies) for IMR-90 cells. Cell lines were verified with a 9-marker short tandem repeat profile and inter-species contamination test (Idexx BioResearch), although A549 cells utilized in proliferation assays were missing the Y allele at the amelogenin marker.
(§3) Cell proliferation & viability assays. Anti-proliferative activity of XB05 and other compounds was evaluated using a previously published 3-(4,5-dimethylthiazol-2-yl)-2,5-diphenyltetrazolium bromide (MTT) assay protocol (MORGAN “Tetrazolium (MTT) assay for cellular viability and activity” Methods Mol Biol. (1998) Vol. 79, pp. 179-83, which is herein incorporated by reference in its entirety, BATES et al. “Antiproliferative activity of G-rich oligonucleotides correlates with protein binding” J Biol Chem. (1999) Vol. 274, No. 37, pp. 26369-26377, which is herein incorporated by reference in its entirety, SALIPUR et al. “A novel small molecule that induces oxidative stress and selectively kills malignant cells” Free Radic Biol Med. (2014) Vol. 68, pp. 110-121, which is herein incorporated by reference in its entirety). Cells were seeded in quadruplicate wells in 96-well plates and allowed to adhere overnight. […] After 72 hrs of treatment with XB05 or other compounds, MTT (Sigma, St. Louis, Mo.) was added for 4 hrs prior to cell lysis. Each assay was performed in at least triplicate.
(§4) XB05 and related compounds were assessed for anti-proliferative activity in malignant (A549) and non-malignant (IMR-90) cells (Table A2).

[4] = test system: A549 cells (non-transfected, non-targeting gRNA); test: Relative proliferation of A549 cells that express MGST1 (non-transfected, non-targeting gRNA); assay type: cell-based, human; settings: 72 h, non-transfected A549 and non-targeting gRNA
Procedure: as §1
Cell proliferation & viability assays. Anti-proliferative activity of XB05 and other compounds was evaluated using a previously published 3-(4,5-dimethylthiazol-2-yl)-2,5-diphenyltetrazolium bromide (MTT) assay protocol (MORGAN “Tetrazolium (MTT) assay for cellular viability and activity” Methods Mol Biol. (1998) Vol. 79, pp. 179-83, which is herein incorporated by reference in its entirety, BATES et al. “Antiproliferative activity of G-rich oligonucleotides correlates with protein binding” J Biol Chem. (1999) Vol. 274, No. 37, pp. 26369-26377, which is herein incorporated by reference in its entirety, SALIPUR et al. “A novel small molecule that induces oxidative stress and selectively kills malignant cells” Free Radic Biol Med. (2014) Vol. 68, pp. 110-121, which is herein incorporated by reference in its entirety). Cells were seeded in quadruplicate wells in 96-well plates and allowed to adhere overnight. […] After 72 hrs of treatment with XB05 or other compounds, MTT (Sigma, St. Louis, Mo.) was added for 4 hrs prior to cell lysis. […]

[5] = DTNB assay for reactivity with free thiols, reduced glutathione; assay type: physicochemical
Procedure: (§5) Dithiobis-2-nitrobenzioc acid (DTNB) assay for free sulfhydryls. Similar to previously described in SALIPUR et al. “A novel small molecule that induces oxidative stress and selectively kills malignant cells” Free Radic Biol Med. (2014) Vol. 68, pp. 110-121, which is herein incorporated by reference in its entirety, reactivity with free sulfhydryls was evaluated using DTNB (Sigma). Briefly, a 4× solution of DTNB (6 mM DTNB, 50 mM sodium acetate in 100 mM Tris-HCl, pH 8.0) and solutions of 0.5 mM cysteine (Sigma) and reduced glutathione (GSH, Sigma) in 100 mM Tris-HCl, pH 8.0 were freshly prepared. The 200 mM stock solutions of XB05, other compounds, diethylmaleate (Sigma), and maleimide (Sigma) were prepared in 100% DMSO, and subsequently diluted to 2× working solutions in 100 mM Tris-HCl, pH 8.0. Thiol compounds (final concentration 0.25 mM) and thiol-reactive compounds (final concentrations 0.04-5 mM) or vehicle were added in duplicate to a 96-well plate and incubated for 30 min at 37° C. DTNB solution was then added to each well (final concentration 400 μM), and incubated at room temperature for an additional 5 min. Absorbance at 412 nm was determined by a Biotek HT Synergy plate reader (Winooski, Vt.).

[6] = test system: A549 (lung adenocarcinoma); test: MTT antiproliferative assay in A549 cells; assay type: cell-based, human
Procedure: as §2, §3, §4

[7] = DTNB assay for reactivity with free thiols, cysteine; assay type: physicochemical
Procedure: as §5

- reactivity with thiol of glutathione ([5]; FIG. 6): not reactive
- IC50 ([6]; Homo sapiens, 72 hrs treatment, MTT): 0.4 µM
- reactivity with thiol of cysteine ([7]; FIG. 5): not reactive
SMILES: CCCCCC(O)C#CC(F)(F)Br (stereo not drawn) [XB05]
- effect on cell proliferation after knockout of MGST1 [1]: reversed
- activity in the NCI60 screen ([2]; 60 human tumor cell lines): activity against about one-third of cancer cells
- fold less sensitive (other cell lines in the screen) ([2]; less active cell lines versus sensitive cell lines): up to 1000 fold
- IC50 [3]: 2.5 µM
- cell proliferation, % of vehicle ([4]; 1 μM): approximately 20%
- cell proliferation, % of vehicle ([4]; 2 μM): ~5%
- DTNB Reactivity with Thiols - DTNB assay with Glutathione ([5]; 0.25 mM reduced glutathione, 30 min at 37° C., pH 8.0): ND (DTNB ND - not detected at concentrations up to 2.5 mM)
- IC30 value in A549 cells [6]: 1000 nM
- DTNB Reactivity with Thiols - DTNB assay with Cysteine ([7]; 0.25 mM cysteine, 30 min at 37° C., pH 8.0): ND (DTNB ND - not detected at concentrations up to 2.5 mM)
